# Results published in US20100184703A1, “USE OF PEPTIDE DERIVATIVES FOR TREATING PATHOLOGIES RESULTING FROM ISCHEMIA” (CHIESI FARMACEUTICI S.p.A., priority 2007, published 2010).
# Peptide text beside a SMILES is read from it. * marks the point of attachment. X1 = COC(=O)CC(N*)C(=O)COc1c(F)cccc1F; Quinaldoyl = O=C(c1ccc2ccccc2n1)*
# Columns and labels:
# [1] = test system: ischemiated and re-perfused hearts; experiment: Morphology of the hearts after ischemia-reperfusion; type: in vivo, rat; conditions: 30 min occlusion, IP injection 15 min before re-perfusion, 10 days after infarct
# Description: In the case of reperfusion ischemia model (IR model), the silk wire was untied after 30 min of occlusion. The artery was then cleared and the myocardial territory reperfused. The control animals (sham operated) were submitted to the same surgery protocol as the above animals, but the silk wire was passed under the coronary without making any ligature.
# The animals were sacrificed by a lethal injection of pentobarbital. The heart was excised and perfused 2-3 min. using Langendorf reverse route and a calcium-free washing solution (NaCl 117, KCl 5.7, NaHCO3 4.4, KH2PO4 1.5, MgCl2 1.7, HEPES 21, glucose 11, taurine 20, pH 7.2 adjusted to NaOH). The solution was then replaced by a PBS solution at 4% of PFA (about 10 ml). The heart was immersed in this fixation solution for about 1 h, and then washed with PBS 4%.
# The animals were submitted to an occlusion of the left coronary artery during 30 min.
# 15 min before the re-perfusion, the animals were treated by an IP injection of D1 or DMSO. The animals were sacrificed after 72 h, 10 days after re-perfusion for an histological analysis of the hearts. The morphology of the hearts (PFA fixed 4%) 10 days after infarct is illustrated by FIG. 7.
# [2] = test system: rats with permanent ligature of the left coronary artery (PMI); experiment: Survival of animals after chronic ischemia (PMI); type: in vivo, rat; conditions: intraperitoneal injection 5-15 min before occlusion
# Description: The analyses were performed on 2 myocardial ischemia models: a chronic ischemia model and an acute ischemia model, followed by myocardial reperfusion after 30 min of occlusion.
# Said models were realized with Wistar male rats (180-220 g). The coronary artery was ligatured according to Pfeffer et al protocol.
# Briefly, the rats were anaesthetized by intraperitoneal administration of a mixture of Ketamine (150 mg/kg) and Xylazine (15 mg/kg), then intubated and mechanically ventilated. The animals were submitted to a left and median thoracotomy. An occlusion of the coronary artery was done with a silk wire (size: 7.0) at the more proximal point and below the auricle.
# In the case of chronic ischemia, the ligature was maintained and the rib cage of the animal reclosed (PMI model for post myocardial infarction).
# The effect of the blocking of the caspase activity by Q-VD-OPH or by D1 on animals survival […] after infarction are given on FIG. 3. (A) over a period of 140 days; (B) the injection of the inhibitors or vehicle (DMSO) was carried out by intraperitoneal route 5-15 min before the occlusion of the coronary artery.
# The animals having undergone a permanent ligature of the left coronary artery (PMI) were maintained alive during 4-5 months before performing the in vivo and ex vivo functional exploration. The death of the animals during this period was followed up.
Structure (SMILES),heart size (cardiac hypertrophy) [1],animal survival over about 140 days post-infarctus [2]
"COC(=O)CC(NC(=O)[C@H](C)NC(=O)[C@@H](NC(=O)[C@H](CC(=O)OC)NC(=O)[C@@H](NC(=O)c1ccc2ccccc2n1)C(C)C)C(C)C)C(=O)COc1c(F)cccc1F (stereo partly drawn) [D1, (3S,6S,9S,12S)-methyl 15-(2-(2,6-difluorophenoxy)acetyl)-3,9-diisopropyl-6-(2-methoxy-2-oxoethyl)-12-methyl-1,4,7,10,13-pentaoxo-1-(quinolin-2-yl)-2,5,8,11,14-pentaazaheptadecan-17-oate] (Quinaldoyl-VD(OMe)VA-X1)",prevents cardiac hypertrophy,–
CC(C)[C@H](NC(=O)c1ccc2ccccc2n1)C(=O)N[C@@H](CC(=O)O)C(=O)COc1c(F)cccc1F [Q-VD-OPH],–,survival curve superimposes on the one of the PMI group
